# From patent US5202266A, “25-hydroxy vitamin D3 derivatives, process for their production, and assay method using the same” (Asahi Kasei Kogyo Kabushiki Kaisha, priority 1987, dated 1993)
# Assays:
# [1] = Storage stability of [125I]-labeled derivative, checked by CPBA standard curve using DBP; format: physicochemical; conditions: 50% H2O-ethanol solution, -20° C., argon atmosphere, day 0, 21 and 49; FIG. 6
# Method: A standard ethanol solution of 25-hydroxy vitamin D3 (1,024 pg/20 μl) was diluted stepwise by two-fold dilutions to prepare 32 pg/20 μl, 16 pg/20 μl, 8 pg/20 μl, 4 pg/20 μl, 2 pg/20 μl and 1 pg/20 μl.
# Samples (20 μl) of each concentration hereinabove were pipetted into two tubes. Aliquots of an ethanol solution, each 20 μl, of radioisotope iodine [125I]-labeled 25-hydroxy vitamin D3 derivative, containing as an antioxidant tocopherol, were pipetted into each tube (20 μl, ca. 30,000 cpm) DBP diluted with tris buffer, pH 8.6 (approx. 500-1,000 dilution of DBP fraction in (1) hereinabove) each 500 μl, was stirred and allowed to stand at 4° C. for 16 hours.
# Glycine buffer, pH 8.6, suspending a mixture of dextran (T70) and active charcoal (1:10) (each 30 μl), was added into the reaction tubes, stirred and incubated at 4° C. for 30 mins. B-F separation was made by centrifugation at 3,000 r.p.m. for 10 mins. at 4° C., and each supernatant solution 500 μl was measured by an Autowell γ-counterfor 1 min. The ratio of binding is calculated by the following equation: [formula] wherein (B) is the count number in each tube, (NSB)-- is the count number measured by using 25-hydroxy vitamin D3 (1,024 pg/20 μl) instead of ^12 5I-labeled 25-hydroxy vitamin D3 derivative and (Bo) is the count number measured by using 25-hydroxy vitamin D3 at zero concentration.
# A 50% H2 O-ethanol solution of [^125 I] […]
# [2] = test system: Anti-25-hydroxy vitamin D3 rabbit serum; test: Radio immunoassay standard curve of 25-hydroxy vitamin D3 using the labeled derivative as tracer; format: binding; conditions: RIA; for sensitivity of assay, monoiodine vs diiodine [125I] labeling: FIG. 3; for standard curve result by methylene chain length n in R1: FIG. 4, n=1, n=2, n=3 compared
# Method: A standard ethanol solution of 25-hydroxy vitamin D3 (256 pg/20 μl) was diluted stepwise by two-fold dilution to prepare 128 pg/20 μl, 64 pg/μl, 32 pg/20 μl, 16 pg/20 μl, 8 pg/20 μl, 4 pg/20 μl and 2 pg/20 μl samples.
# Samples (20 μl) of each concentration hereinabove were pipetted into three tubes. Ethanol solutions, each 20 μl, of radioisotope iodine [^125 I]-labeled 25-hydroxy vitamin D3 derivative which contains as an antioxidant tocopherol was pipetted into each tube (20 μl, ca. 13,000 cpm).
# Anti-25-hydroxy vitamin D3 rabbit serum diluted with tris buffer (approx. 15,000 dilution) pH 8.6, each 1 ml, was added to each tube. Each mixture in the tubes was stirred in a BORTEX mixer and allowed to stand at 5° C. overnight (20-24 hours). Glycine buffer (pH 8.6) suspending a mixture of dextran (T70) and active charcoal (1:10), each 300 μl) was added into the reaction tubes, and each was stirred by a BORTEX mixer and incubated at 5° C. for 1 hour. B-F separation was performed by centrifugation at 3,000 r.p.m. for 10 mins., and each supernatant solution (1 ml) was measured by an Autowell γ-counter for 1 min. The ratio of binding is calculated by the following equation: [formula] wherein (B) is the count number in each tube, (BL) is the count number measured by using 25-hydroxy vitamin D3 (1,000 pg/20 μl) in place of isotope ^125 I-labeled 25-hydroxy vitamin D3 derivative, and (Bo) is the count number measured by using 25-hydroxy vitamin D3 at zero concentration.
# A standard curve was prepared by using tritium [^3 H]-labeled 25-hydroxy vitamin D3 derivative (26, 27-methyl-^3 H) as in the case of the [^125 I]-labeled derivative in (1) hereinabove.
# Monoiodine [^125 I] labeling and diiodine [^125 I] labeling were compared according to the same method as hereinabove. In FIG. 3, -- -- -- indicates monoiodine [^125 I] labeling, and -- -- -- indicates diiodine [^125 I] labeling.
# In formula [IV], assays using compounds having methylene R1 [--CH2)n--] wherein n=1, n=2 and n=3, are compared with each other.
Compound,stability: change of standard curve after storage [1],"sensitivity of assay, monoiodine vs diiodine [125I] labeling [2]",standard curve result by methylene chain length n in R1 [2]
C=C1CC[C@H](OC(=O)CCNC(=O)CCc2cc([125I])c(O)c([125I])c2)C/C1=C/C=C1\CCC[C@]2(C)[C@@H]([C@H](C)CCCC(C)(C)O)CC[C@@H]12 [Example 5],no changes of the standard curve within a range of 2-32 pg/Test were observed,almost the same sensitivity,
C=C1CC[C@H](OC(=O)CCCNC(=O)CCc2ccc(O)c([125I])c2)C/C1=C/C=C1\CCC[C@]2(C)[C@@H]([C@H](C)CCCC(C)(C)O)CC[C@@H]12 [n=3],,,good results as compared with n=1
"C=C1CC[C@H](OC(=O)CCNC(=O)CCc2ccc(O)c([125I])c2)C/C1=C/C=C1\CCC[C@]2(C)[C@@H]([C@H](C)CCCC(C)(C)O)CC[C@@H]12 [Example 4, 25-hydroxy vitamin D3 --3β--O--{3-[N-3-(4-hydroxy-3-iodo [^125 I]phenyl)propionyl]amino propionate}]",no changes of the standard curve within a range of 2-32 pg/Test were observed,almost the same sensitivity,
C=C1CC[C@H](OC(=O)CCNC(=O)CCc2ccc(O)c([125I])c2)C/C1=C/C=C1\CCC[C@]2(C)[C@@H]([C@H](C)CCCC(C)(C)O)CC[C@@H]12 [n=2],,,good results as compared with n=1
